Test results reported in PMC6306559 (Pharmacology Research & Perspectives, 2018).
Like-named read-outs stand apart in the source and are kept apart here.

How the values were obtained:
[1] = system: α1A‐AR expressing COS‐7 cells; assay: Phenylephrine-induced CRE reporter assay; type: cell-based; conditions: for Effect of inhibitor on diazepam modulation of phenylephrine‐stimulated CRE response / Cotreatment with diazepam, effect on phenylephrine CRE response / Modulation of phenylephrine CRE response by PDE inhibitor: 0.1 μmol/L phenylephrine; for Modulation of phenylephrine CRE response by PDE inhibitor: IBMX 500 μmol/L, rolipram 10 μmol/L
Method: (§1) cAMP response element (CRE) response assays were performed as previously described by transfecting WT α1A‐ and α1B‐AR stably expressing COS‐7 cells, parental COS‐7 cells or parental HEK293T cells, with a β‐galactosidase expression plasmid under the control of the CRE promoter.10 CRE reporter‐transfected cells were seeded into 96‐well culture plates for 24 hours before treatment with various compounds for 6 hours at 37°C 5% CO2. Media was aspirated, and the cells frozen at −80°C for at least 24 hours before measurement of cellular β‐galactosidase expression using chlorophenol red‐β‐D‐galactopyranoside. Ligands were made up in 0.5% FBS DMEM media. […] HEK293T cells transiently transfected with GPR68 and pCRE were stimulated with sodium bicarbonate‐free, low glucose DMEM, supplemented with 20 mmol/L HEPES and 0.5% FBS at pH 6.8, 7.0, 7.2, 7.4, and 7.8. The pH was adjusted at 37°C with NaOH. Cells were incubated for 6 hours at 37°C, in a room atmosphere incubator.
Nuclear magnetic resonance (NMR) data were processed in Topspin 3.5 using squared cosine‐bells in both dimensions and zero‐filled once, prior to Fourier‐transformation. All other data was analyzed with Graphpad prism 7 (San Diego, CA, USA). All error bars are standard deviation (SD) from three independent experiments. Competition binding assays were performed in duplicate wells. Curves were fit with one site nonlinear regression. For whole cell QAPB binding, the mean QAPB fluorescence intensity (MFI) of at lease 5000 cells was measured, and plotted against QAPB concentration. Values reported represent the mean and SD of at least three K d values calculated from separate measurements. Ca^2+ mobilization data were performed in triplicate wells and normalized to the peak response elicited by 3 μmol/L ionomycin. CRE assay was conducted in triplicate, and data were normalized to the response elicited by the vehicle. Curves were fitted with three variable nonlinear regressions. For GPR68 assays, responses were normalized to CRE response at pH 6.8 (100%) and pH 7.8 (0%).

[2] = system: α1A‐AR expressing COS‐7 cells; type: cell-based, human; conditions: 10 μmol/L forskolin; for Modulation of forskolin CRE response by PDE inhibitor: IBMX 500 μmol/L, rolipram 10 μmol/L
guinea pig PDE‐4 = conditions: cited from earlier work; for Potency relative to diazepam: benzodiazepines unsubstituted at N‐1
α1B‐AR #15 [3] = assay: QAPB competition binding at purified thermostabilized receptor on paramagnetic beads; conditions: for QAPB displacement: 10 nmol/L QAPB, 2 hours, benzodiazepines up to 200 μmol/L
[4] = system: purified guinea pig PDE‐4; conditions: cited from earlier work
[5] = system: untransfected HEK293T cells; assay: Isoprenaline-induced CRE reporter assay; type: cell-based, human; conditions: 50 μmol/L diazepam
GPR68 = target: T1, GPR68 (Homo sapiens, UniProt Q15743); assay: GPR68 pH-stimulated CRE reporter assay; type: cell-based; conditions: pH 7.2; HEK293T cells transfected with GPR68
T1 construct: expressed in transfected cells; host or cells: HEK293T (transient)
Method: as §1, with “Cells were incubated for 6 hours at 37°C, in a room atmosphere incubator.” left out
Nuclear magnetic resonance (NMR) data were processed in Topspin 3.5 using squared cosine‐bells in both dimensions and zero‐filled once, prior to Fourier‐transformation. All other data was analyzed with Graphpad prism 7 (San Diego, CA, USA). […] For whole cell QAPB binding, the mean QAPB fluorescence intensity (MFI) of at lease 5000 cells was measured, and plotted against QAPB concentration. Values reported represent the mean and SD of at least three K d values calculated from separate measurements. […]

WT α1A‐AR = target: T2, WT α1A‐AR (Homo sapiens, UniProt P35348); assay: Intracellular Ca2+ mobilization in stably expressing COS‐7 cells; type: cell-based; conditions: for Effect on Ca2+ mobilization: 0 to 50 μmol/L, absence or presence of 10 nmol/L phenylephrine
T2 construct: expressed in transfected cells
T2 sequence (P35348 1-466): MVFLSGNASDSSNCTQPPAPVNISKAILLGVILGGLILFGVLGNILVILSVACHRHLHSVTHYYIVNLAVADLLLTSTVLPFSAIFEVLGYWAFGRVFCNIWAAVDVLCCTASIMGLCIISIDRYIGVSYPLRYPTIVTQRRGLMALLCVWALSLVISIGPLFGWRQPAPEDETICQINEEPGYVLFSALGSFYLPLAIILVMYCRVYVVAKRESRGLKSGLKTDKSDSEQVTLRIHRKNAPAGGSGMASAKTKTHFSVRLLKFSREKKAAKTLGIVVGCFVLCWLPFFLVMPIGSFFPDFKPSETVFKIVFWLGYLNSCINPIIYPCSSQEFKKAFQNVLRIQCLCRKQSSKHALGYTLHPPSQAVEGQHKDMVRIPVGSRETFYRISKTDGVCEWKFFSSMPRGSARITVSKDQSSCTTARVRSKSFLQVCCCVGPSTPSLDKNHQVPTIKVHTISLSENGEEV

[6] = system: untransfected COS‐7 cells; assay: Phenylephrine-induced CRE reporter assay; type: cell-based; conditions: 50 μmol/L diazepam; cells do not express α1A‐AR and α1B‐AR
Method: as §1

[7] = system: untransfected human embryonic kidney 293T cells; assay: Forskolin-induced CRE reporter assay; type: cell-based; conditions: 50 μmol/L diazepam
WT α1B‐AR [8] = target: T3, WT α1B‐AR (Homo sapiens, UniProt P35368); assay: Intracellular Ca2+ mobilization in stably expressing COS‐7 cells; type: cell-based; conditions: for Effect on Ca2+ mobilization: 0 to 50 μmol/L, absence or presence of 10 nmol/L phenylephrine
T3 construct: COS‐7 cells stably expressing unmodified α1B‐AR; expressed in transfected cells
T3 sequence (P35368 1-520): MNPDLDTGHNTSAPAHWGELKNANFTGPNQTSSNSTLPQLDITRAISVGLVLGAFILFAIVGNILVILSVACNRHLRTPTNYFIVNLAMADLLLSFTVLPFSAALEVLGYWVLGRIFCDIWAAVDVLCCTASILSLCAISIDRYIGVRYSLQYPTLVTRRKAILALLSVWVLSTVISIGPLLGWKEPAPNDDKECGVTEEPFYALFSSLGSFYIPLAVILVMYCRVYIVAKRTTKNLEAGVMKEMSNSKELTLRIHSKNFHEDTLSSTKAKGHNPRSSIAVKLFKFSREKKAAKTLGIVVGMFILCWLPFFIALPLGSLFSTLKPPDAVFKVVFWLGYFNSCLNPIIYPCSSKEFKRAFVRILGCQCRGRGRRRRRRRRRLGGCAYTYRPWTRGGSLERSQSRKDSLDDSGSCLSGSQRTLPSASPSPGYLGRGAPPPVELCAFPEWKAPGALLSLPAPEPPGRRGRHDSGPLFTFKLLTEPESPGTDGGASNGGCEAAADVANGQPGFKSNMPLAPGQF

[9] = system: α1B‐AR expressing COS‐7 cells; assay: Phenylephrine-induced CRE reporter assay; type: cell-based
α1A‐AR A4 [10] = conditions: for QAPB displacement: 10 nmol/L QAPB, 2 hours, benzodiazepines up to 200 μmol/L
α1A‐AR A4 [11] = conditions: 500 μmol/L ligand, 5 μmol/L receptor in DDM, with and without 10 μmol/L prazosin; controls DDM alone and enNTS1
α1A‐AR A4 [12] = conditions: previously reported; read-out: K d of QAPB; cited from earlier work
WT α1B‐AR [13] = target: T3, WT α1B‐AR; assay: Whole cell QAPB saturation binding by flow cytometry; conditions: COS‐7 cells, read-out: K d of QAPB
Method: Fifty microliter of the cell suspension was added to each well of a V‐bottom 96‐well plate (Sarstead, Nümbrecht, Germany). […] To determine nonspecific binding, cells were exposed to QAPB at the same concentrations as above, but in the presence of 100 μmol/L phentolamine. The cells were incubated with ligands for 1 hour at 20°C prior to detection of bound QAPB with flow cytometry using CytoFLEX LX flow cytometer (Beckman Coulter, Brea, CA, USA).

α1B‐AR #15 [14] = conditions: previously reported; read-out: K d of QAPB; cited from earlier work
[15] = 2.5 mmol/L phenylephrine, increasing diazepam
[16] = not in untransfected COS‐7 cells

T1 sequence (Q15743 whole entry, species assumed): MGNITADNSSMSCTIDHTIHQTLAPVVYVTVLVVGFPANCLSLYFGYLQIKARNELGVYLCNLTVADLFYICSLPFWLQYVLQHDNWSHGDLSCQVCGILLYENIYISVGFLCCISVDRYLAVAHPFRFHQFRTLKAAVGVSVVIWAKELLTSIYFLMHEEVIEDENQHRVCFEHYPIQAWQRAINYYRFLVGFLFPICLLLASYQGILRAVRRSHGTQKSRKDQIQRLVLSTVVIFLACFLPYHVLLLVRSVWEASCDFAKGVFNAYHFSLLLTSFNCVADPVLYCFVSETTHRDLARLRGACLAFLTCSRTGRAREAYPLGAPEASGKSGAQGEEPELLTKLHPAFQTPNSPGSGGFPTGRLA

NCCOB(c1ccccc1)c1ccccc1 [2‐APB]
Effect of inhibitor on diazepam modulation of phenylephrine‐stimulated CRE response ([1]; 50 μmol/L diazepam): had no significant effect | Effect of inhibitor on diazepam modulation of forskolin‐stimulated CRE response ([2]; 50 μmol/L diazepam): had no significant effect

COC(=O)C1=C(C)NC(C)=C([N+](=O)[O-])[C@@H]1c1ccccc1C(F)(F)F [(R)‐(+)‐Bay K 8644]
Effect of inhibitor on diazepam modulation of phenylephrine‐stimulated CRE response ([1]; 50 μmol/L diazepam): had no significant effect | Effect of inhibitor on diazepam modulation of forskolin‐stimulated CRE response ([2]; 50 μmol/L diazepam): had no significant effect

CC(C)Cn1c(=O)n(C)c(=O)c2[nH]cnc21 [IBMX]
Cotreatment with diazepam, effect on phenylephrine CRE response ([1]; 50 μmol/L diazepam): had no additional positive modulatory effect | Modulation of phenylephrine CRE response by PDE inhibitor [1]: positively modulated the CRE response of phenylephrine to a similar level as diazepam | Cotreatment with diazepam, effect on forskolin CRE response ([2]; 50 μmol/L diazepam): no additive effect was observed | Modulation of forskolin CRE response by PDE inhibitor [2]: positively modulated the CRE response of forskolin

COc1ccc(S(=O)(=O)N(CCO)c2ccccc2CN(C)C/C=C/c2ccc(Cl)cc2)cc1 [KN‐93]
Effect of inhibitor on diazepam modulation of phenylephrine‐stimulated CRE response ([1]; 50 μmol/L diazepam): had no significant effect | Effect of inhibitor on diazepam modulation of forskolin‐stimulated CRE response ([2]; 50 μmol/L diazepam): had no significant effect

Cl.NCCCCCCNS(=O)(=O)c1cccc2c(Cl)cccc12 [W‐7 hydrochloride]
Effect of inhibitor on diazepam modulation of phenylephrine‐stimulated CRE response ([1]; 50 μmol/L diazepam): significantly reduced both the phenylephrine response and the diazepam modulation of the CRE response | Effect of inhibitor on diazepam modulation of forskolin‐stimulated CRE response ([2]; 50 μmol/L diazepam): had no significant effect on forskolin stimulation

COC(=O)C1=C(C)NC(C)=C(C(=O)OC2CCCN(Cc3ccccc3)C2)C1c1cccc([N+](=O)[O-])c1 (stereo not shown) [benidipine]
Effect of inhibitor on diazepam modulation of phenylephrine‐stimulated CRE response ([1]; 50 μmol/L diazepam): significantly reduced both the phenylephrine response and the diazepam modulation of the CRE response | Effect of inhibitor on diazepam modulation of forskolin‐stimulated CRE response ([2]; 50 μmol/L diazepam): had no effect

CN1CCc2cc3c(cc2[C@H]1[C@@H]1OC(=O)c2c1ccc1c2OCO1)OCO3 [bicuculline]
Effect of inhibitor on diazepam modulation of phenylephrine‐stimulated CRE response ([1]; 50 μmol/L diazepam): had no effect | Effect of inhibitor on diazepam modulation of forskolin‐stimulated CRE response ([2]; 50 μmol/L diazepam): had no effect

O=C1CN=C(c2ccccc2Cl)c2cc([N+](=O)[O-])ccc2N1 [clonazepam]
Potency relative to diazepam (guinea pig PDE‐4): less potent than diazepam

CN1C(=O)CN=C(c2ccccc2)c2cc(Cl)ccc21 [diazepam]
QAPB displacement (α1B‐AR #15 [3]): neither diazepam nor lorazepam displaced QAPB at either receptor | Cooperativity with phenylephrine in QAPB displacement (α1B‐AR #15 [3]; [15]): No cooperativity between diazepam and phenylephrine was observed | Competition with 3H‐rolipram [4]: competes with ^3H‐rolipram | Modulation of isoprenaline CRE efficacy [5]: significantly increased the CRE efficacy of isoprenaline | Modulation of GPR68 CRE response (GPR68): did not significantly increase the CRE response of GPR68 | Effect on Ca2+ mobilization (WT α1A‐AR): had no effect | Modulation of phenylephrine‐induced CRE response [6]: positively modulated | IC50 (guinea pig PDE‐4): 9000 nM | Modulation of phenylephrine potency in CRE assay ([1]; 50 μmol/L diazepam): positively modulated the potency of phenylephrine | EC50 ([1]; COS-7, 200 nmol/L phenylephrine, mean ± SD from three experiments, read-out: EC50 for modulating the phenylephrine CRE response): 6500 ± 4800 nM | CRE response in the absence of phenylephrine ([1]; diazepam alone): did not induce a CRE response | Modulation of forskolin potency in CRE assay [7]: positively modulated the potency | Effect on Ca2+ mobilization (WT α1B‐AR [8]): had no effect | EC50 ([9]; COS-7, 800 nmol/L phenylephrine, mean ± SD from three experiments, read-out: EC50 for modulating the phenylephrine CRE response): 7800 ± 1900 nM | CRE response in the absence of phenylephrine ([9]; diazepam alone): did not induce a CRE response | QAPB displacement (α1A‐AR A4 [10]): neither diazepam nor lorazepam displaced QAPB at either receptor | Cooperativity with phenylephrine in QAPB displacement (α1A‐AR A4 [10]; [15]): No cooperativity between diazepam and phenylephrine was observed

O=C1Nc2ccc(Cl)cc2C(c2ccccc2Cl)=NC1O (stereo not shown) [lorazepam]
QAPB displacement (α1B‐AR #15 [3]): neither diazepam nor lorazepam displaced QAPB at either receptor | Modulation of GPR68 CRE response (GPR68): positively modulated the CRE response | Effect on Ca2+ mobilization (WT α1A‐AR): had no effect | Potency relative to diazepam (guinea pig PDE‐4): less potent than diazepam | STD NMR signals, interpretation (α1A‐AR A4 [11]): nonspecific interactions with detergent micelles | Effect on Ca2+ mobilization (WT α1B‐AR [8]): had no effect | QAPB displacement (α1A‐AR A4 [10]): neither diazepam nor lorazepam displaced QAPB at either receptor

O=C1CN=C(c2ccccc2)c2cc([N+](=O)[O-])ccc2N1 [nitrazepam]
Potency relative to diazepam (guinea pig PDE‐4): less potent than diazepam

CNC[C@H](O)c1cccc(O)c1 [phenylephrine]
QAPB displacement (α1B‐AR #15 [3]): displaced QAPB at both receptor subtypes | Agonist stimulation of calcium mobilization (WT α1A‐AR; [16]): stimulated calcium mobilization | Agonist stimulation of calcium mobilization (WT α1B‐AR [8]; [16]): stimulated calcium mobilization | QAPB displacement (α1A‐AR A4 [10]): displaced QAPB at both receptor subtypes

COc1ccc(C2CNC(=O)C2)cc1OC1CCCC1 (stereo not shown) [rolipram]
Cotreatment with diazepam, effect on phenylephrine CRE response ([1]; 50 μmol/L diazepam): had no additional positive modulatory effect | Modulation of phenylephrine CRE response by PDE inhibitor [1]: positively modulated the CRE response of phenylephrine to a similar level as diazepam | Cotreatment with diazepam versus rolipram alone, forskolin CRE response ([2]; 50 μmol/L diazepam): significantly decreased | Cotreatment with diazepam, effect on forskolin CRE response ([2]; 50 μmol/L diazepam): no additive effect was observed | Modulation of forskolin CRE response by PDE inhibitor [2]: positively modulated the CRE response of forskolin

quinazoline piperazine bodipy [QAPB]
Kd (α1A‐AR A4 [12]): 11.6 nM | Kd (WT α1B‐AR [13]; absence of diazepam): 12 ± 3 nM | Kd (WT α1B‐AR [13]; presence of 50 μmol/L diazepam): 20 ± 13 nM | Kd (α1B‐AR #15 [14]): 8.5 nM
